Results taken from patent publication US20120245029A1, “NOVEL PHOSPH(ON)ATE- AND SULF(ON)ATE-BASED PHOSPHATE MODIFIED NUCLEOSIDES USEFUL AS SUBSTRATES FOR POLYMERASES AND AS ANTIVIRAL AGENTS” (priority 2009, published 2012).

Tests used:
HIV-1 RT [1] = molecular target: T1, HIV-1 RT (Human immunodeficiency virus type 1 group M subtype B, UniProt P04585); assay: Steady-state kinetics of single nucleotide incorporation by HIV-1 RT; assay type: biochemical; conditions: P1T1 125 nM, HIV-1 RT 0.025 U/μL, 37° C.
T1 construct: HIV-1 Reverse Transcriptase serves, in the HIV-1 viral replication process, as catalyst; purchased Ambion
Protocol: The efficiency of incorporation by HIV-1 RT of 3-phosphono-L-Ala-dAMP (3) was investigated by determination of the kinetic parameters Km and Vmax. The steady-state kinetics assay was carried out as follows. The reaction was started by adding HIV-1 RT to P1-T1 complex, buffer, 3-phosphono-L-Ala-dAMP (3) and dATP. The final mixture (20 μL) contained 0.025 U/μL HIV-1 RT, buffer, 125 nM primer-template complex, and various concentrations 3-phosphono-L-Ala-dAMP and dATP. The range of concentrations for phosphoamidates was optimized according to a Km value for the incorporation of an individual nucleotide. In the case of HIV-1 RT, reaction mixtures containing the enzyme in concentration (0.025 U/μL) to attain 5-25% conversion and appropriate substrate concentration (0.5-100 μM used for 3-phosphono-L-Ala-dAMP (3) and 0.1-10 μM used for dATP) were incubated at 37° C. and run for 8-10 different time intervals (2-20 minutes). The incorporation velocities were calculated based on the percentage of single-nucleotide extension product (P+1 band). The kinetic parameters (Vmax and Km) were determined by plotting V (nM/min) versus substrate concentration (μM) and fitting the data point to a nonlinear Michaelis-Menten regression using GraphPad Prism software.

HIV-1 RT [2] = molecular target: T1, HIV-1 RT; assay: Gel-based single nucleotide incorporation assay by HIV-1 RT (primer-template P1T1); assay type: biochemical; conditions: for % of P + 1: P1T1 125 nM; for conversion within 60 minutes: P1T1
Protocol: (§1) DNA polymerase reactions: end-labeled primer was annealed to its template by combining primer and template in a molar ratio of 1:2 and heating the mixture to 70° C. for 10 minutes followed by slow cooling to room temperature over a period of 1.5 hour. For the incorporation of a modified nucleoside, a series of 20 μL-batch reactions was performed with the enzyme HIV-1 RT (Ambion, 10 U/μL stock soln, specific activity 8.095 Wring, concentration 1.2 mg/mL). The final mixture contained 125 nM primer template complex, RT buffer (250 mM Tris.HCl, 250 mM KCl, 50 mM MgCl2, 2.5 mM spermidine, 50 mM dithiothreitol (DTT); pH 8.3), 0.025 U/μL HIV-1 RT, and different concentrations of the phosphoramidate to be tested (1 mM, 500 μM, 200 μM and 100 μM).
(§2) Electrophoresis: all polymerase reaction aliquots (2.5 μL) were quenched by the addition of 10 μL of loading buffer (90% formamide, 0.05% bromophenol blue, 0.05% xylene cyanol and 50 mM ethylenediaminetetraacetic acid (EDTA)). Samples were heated at 85° C. for 5 minutes prior to analysis by electrophoresis for 2.5 hours at 2000 V on a 30 cm×40 cm×0.4 mm 20% (19:1 mono:bis) denaturing gel in the presence of a 100 mM Tris-borate, 2.5 mM EDTA buffer; pH 8.3. Products were visualized by phosphorimaging. The amount of radioactivity in the bands corresponding to the products of enzymatic reactions was determined by using the imaging device Cyclone@ and the Optiquant image analysis software (Perkin Elmer).
Here, the ability of phosphoramidate analogues as substrate for HIV-1 RT was investigated by the gel-based single nucleotide incorporation assay. The natural nucleoside triphosphate (dATP) was used as reference.
The ability of HIV-1 reverse transcriptase to incorporate phosphoramidate analogues 2-6 was analysed by gel-based single-nucleotide-incorporation assays using the primer-template complex P1T1.

HIV-1 RT [3] = molecular target: T1, HIV-1 RT; conditions: previous experiments / already known; cited from earlier work
HIV-1 RT [4] = molecular target: T1, HIV-1 RT; assay: Elongation of primer P1 directed by template T2 by HIV-1 RT; assay type: biochemical; conditions: for % product P + 1 / % product P + 2 / % product P + 3 / % product P + 4 / % product P + 5 / % product P + 6 / % product P + 7: 120 minutes reaction, P1T2, percentage of the total amount of radio-nucleotides
Protocol: as §1, §2
In order to further investigate the potentiality of the leaving groups of this invention, L-Cys-dAMP (2) and 3-phosphono-L-Ala-dAMP (3) were tested in the template dependent incorporation of more than one phosphoramidate nucleotides by HIV-1 RT (FIG. 4). For this purpose, Primer P1 and template T2 containing an overhang of seven thymidine residues and four nucleobases (GGAC) at the 3′-end were used.
In order to investigate the strand elongation capacity of compound 2, a template dependent incorporation of more than one nucleotide experiment was carried out. In this experiment HIV-1 RT and P1T2 duplex, where seven thymidine bases overhang of the template is flanked by four non-thymidine units at the 3′-end were used. A range of concentration of the building block was incubated with the primer-template complex and 0.025 U/μL of enzyme at the appropriate temperature, samples were quenched after 15, 30, 60, 90 and 120 minutes respectively and analyzed by 20% polyacrylamide gel electrophoresis.

HIV-1 RT [5] = molecular target: T1, HIV-1 RT; assay: Gel-based single nucleotide incorporation assay by HIV-1 RT (primer-template P1T1); assay type: biochemical; conditions: among phosphoramidate analogues 1-5

| SMILES | % of P + 1 (HIV-1 RT [2]; 100 μM substrate, 10 min) | % of P + 1 (HIV-1 RT [2]; 100 μM substrate, 20 min) | % of P + 1 (HIV-1 RT [2]; 100 μM substrate, 30 min) | % of P + 1 (HIV-1 RT [2]; 100 μM substrate, 60 min) | % of P + 1 (HIV-1 RT [2]; 100 μM substrate, 120 min) | % of P + 1 (HIV-1 RT [2]; 200 μM substrate, 10 min) | % of P + 1 (HIV-1 RT [2]; 200 μM substrate, 20 min) | % of P + 1 (HIV-1 RT [2]; 200 μM substrate, 30 min) | % of P + 1 (HIV-1 RT [2]; 200 μM substrate, 60 min) | % of P + 1 (HIV-1 RT [2]; 200 μM substrate, 120 min) | % of P + 1 (HIV-1 RT [2]; 1 mM substrate, 60 min) | % product P + 1 (HIV-1 RT [4]) | % product P + 2 (HIV-1 RT [4]) | % product P + 3 (HIV-1 RT [4]) | % product P + 4 (HIV-1 RT [4]) | % product P + 5 (HIV-1 RT [4]) | % product P + 6 (HIV-1 RT [4]) | % product P + 7 (HIV-1 RT [4]) | conversion within 60 minutes (HIV-1 RT [2]; 500 μM substrate, 60 min) | other results |
| --- | --- | --- | --- | --- | --- | --- | --- | --- | --- | --- | --- | --- | --- | --- | --- | --- | --- | --- | --- | --- |
| Nc1ncnc2c1ncn2[C@H]1C[C@H](O)[C@@H](COP(=O)(O)OP(=O)(O)OP(=O)(O)O)O1 [dATP, reference compound] | – | – | – | – | – | – | – | – | – | – | – | – | – | – | – | – | – | – | – | Km (HIV-1 RT [1]): 0.93 ± 0.26 µM; Vmax (HIV-1 RT [1]): 32.27 ± 2.32 nM/min |
| Nc1ncnc2c1ncn2[C@H]1C[C@H](O)[C@@H](COP(=O)(O)NCCS(=O)(=O)O)O1 [Compound 1, 2′-deoxyadenosine-5′-taurine phosphoramidate] | 3.5% | 4.0% | 4.8% | 6.3% | 7.2% | 3.1% | 5.7% | 4.6% | 5.1% | 4.3% | 54.7% | – | – | – | – | – | – | – | – | % of P + 1 (HIV-1 RT [2]; 500 μM substrate, 10 min): 12.8%; % of P + 1 (HIV-1 RT [2]; 500 μM substrate, 20 min): 16.6%; % of P + 1 (HIV-1 RT [2]; 500 μM substrate, 30 min): 19.8%; % of P + 1 (HIV-1 RT [2]; 500 μM substrate, 60 min): 20.1%; % of P + 1 (HIV-1 RT [2]; 500 μM substrate, 120 min): 20.2%; % of P + 1 (HIV-1 RT [2]; 1 mM substrate, 10 min): 26.6%; % of P + 1 (HIV-1 RT [2]; 1 mM substrate, 20 min): 41.0%; % of P + 1 (HIV-1 RT [2]; 1 mM substrate, 30 min): 55.1%; % of P + 1 (HIV-1 RT [2]; 1 mM substrate, 120 min): 55.7% |
| Nc1ncnc2c1ncn2C1CC(O)C(COP(=O)(O)NC(CC(=O)O)C(=O)O)O1 [L-aspartic acid phosphoramidate of dAMP] | – | – | – | – | – | – | – | – | – | – | – | – | – | – | – | – | – | – | – | substrate / leaving group quality for the polymerase (in words), already known (HIV-1 RT [3]): acceptable leaving group |
| Nc1ncnc2c1ncn2[C@H]1C[C@H](O)[C@@H](COP(=O)(O)N(CCP(=O)(O)O)CCP(=O)(O)O)O1 [Compound 7, 2′-deoxyadenosine-5′-[iminobis(ethyl phosphonate)] phosphoramidate] | – | – | – | – | – | – | – | – | – | – | – | 15.2% | 35.4% | 4.9% | traces | 0% | 0% | 0% | 83.2% | – |
| Nc1ncnc2c1ncn2[C@H]1C[C@H](O)[C@@H](COP(=O)(O)N[C@@H](CS(=O)(=O)O)C(=O)O)O1 [Compound 2, 2′-Deoxyadenosine-5′-(L-cysteic acid) phosphoramidate] | 7.7% | 7.9% | 8.5% | 9.3% | 9.1% | 13.7% | 15.6% | 16.0% | 15.8% | 18.1% | 63.1% | – | – | – | – | – | – | – | – | primer extension products (in words) (HIV-1 RT [4]; P1T2, gel electrophoresis): only extended a primer with one and two adenine nucleobases; % of P + 1 (HIV-1 RT [2]; 500 μM substrate, 10 min): 27.7%; % of P + 1 (HIV-1 RT [2]; 500 μM substrate, 20 min): 29.6%; % of P + 1 (HIV-1 RT [2]; 500 μM substrate, 30 min): 38.3%; % of P + 1 (HIV-1 RT [2]; 500 μM substrate, 60 min): 38.4%; % of P + 1 (HIV-1 RT [2]; 500 μM substrate, 120 min): 41.5% |
| Nc1ncnc2c1ncn2[C@H]1C[C@H](O)[C@@H](COP(=O)(O)N[C@@H](COS(=O)(=O)O)C(=O)O)O1 [Compound 4, 2′-Deoxyadenosine-5′-(O-sulfonato-L-serine) phosphoramidate] | – | – | – | – | – | – | – | – | – | – | 8.1% | – | – | – | – | – | – | – | – | substrate quality for HIV-1 RT (in words) (HIV-1 RT [5]): much less good substrates |
| Nc1ncnc2c1ncn2[C@H]1C[C@H](O)[C@@H](COP(=O)(O)N[C@@H](COP(=O)(O)O)C(=O)O)O1 [Compound 5, 2′-Deoxyadenosine-5′-(O-phospho-L-serine) phosphoramidate] | 3.1% | 3.2% | 4.6% | 5.1% | 5.2% | 3.7% | 4.6% | 5.8% | 6.6% | 9.5% | 19.4% | – | – | – | – | – | – | – | – | substrate quality for HIV-1 RT (in words) (HIV-1 RT [5]): much less good substrates |
| Nc1ncnc2c1ncn2[C@H]1C[C@H](O)[C@@H](COP(=O)(O)N(CP(=O)(O)O)CP(=O)(O)O)O1 [Compound 6, 2′-deoxyadenosine-5′-[iminobis(methanephosphonate)] phosphoramidate] | – | – | – | – | – | – | – | – | – | – | – | 8.6% | 53.1% | 10.8% | traces | 0% | 0% | 0% | 90% | – |
| Nc1ncnc2c1ncn2[C@H]1C[C@H](O)[C@@H](COP(=O)(O)N[C@@H](CO)C(=O)O)O1 [Ser-dAMP] | – | – | – | – | – | – | – | – | – | – | – | – | – | – | – | – | – | – | – | substrate / leaving group quality for the polymerase (in words), already known (HIV-1 RT [3]): poor substrate |
| Nc1ncnc2c1ncn2[C@H]1CC(O)[C@@H](COP(=O)(O)N(CC(=O)O)CP(=O)(O)O)O1 (stereo partly shown) [Compound 8] | – | – | – | – | – | – | – | – | – | – | – | 11.8% | 37.7% | 7.9% | traces | 1.2% | 0.6% | 1.2% | 70.8% | – |
